Assay results published in patent publication US12673083B2, “TREM-1 inhibitors for the treatment of vaso-occlusions and tissue injuries in patients suffering from sickle cell disease” (INSERM (INSTITUT NATIONAL DE LA SANTÉ ET DE LA RECHERCHE …, priority 2019, dated 2026).
“Also recorded” adds a separate entry of the source.

Legend:
Ter 119+ erythrocytes = assay: Hypoxia-reoxygenation experimental vaso-occlusive crisis: vascular congestion with erythrocytes on histological sections; format: in vivo, sickle cell mice (SS)
Procedure: (§1) Experiments were performed on 4-6 week-old sex matched healthy control (Hba^tm1(HBA)Tow Hbb^tm3(HBG1,HBB) Tow) (HbAA (hα/hα::β^A/β^A)) and SCD (Hba^tm1(HBA)Tow Hbb^tm2(HBG1,HBB*)Tow) (HbSS (hα/hα::βS/βS)) mice as well as SAD transgenic sickle mice with or without Trem-1 gene deletion (TREM-1 KO). The animal protocol was approved by the Paris Descartes University Animal Care and Use Committee and the French Ministry of Agriculture. Animals were anesthetized with isoflurane, and whole blood was collected from each mouse via retro-orbital venipuncture by heparinized microcapillaries. In anesthetized animals, organs were immediately removed and divided into two and either immediately frozen in liquid nitrogen or fixed in 10% formalin and embedded in paraffin for histology.
(§2) In order to test the pharmacological inhibition of TREM-1 on erythrocyte vascular congestion and neutrophils infiltrates, homozygous HbS (SS) mice were subjected to 14 hours hypoxia (8% oxygen) and then 1 hours reoxygenation (21% oxygen) to trigger acute vaso-occlusive crisis as previously described (Sabaa N et al. J Clin Invest. 2008 May; 118(5):1924-33). The TREM-1 inhibitory peptide for each of the hypoxia-reoxygenation experiments was administered by intraperitoneal injection just prior to the onset of hypoxia, as well as at the end of hypoxia, at the beginning of the reoxygenation phase. These conditions reproduce a situation of severe hypoxia for SCD, provoking crises and damage related to ischemia-reperfusion. After this experiment, the tissues were analyzed in the same way as for the SS mice in the base state.

neutrophils = assay: Intravital microscopy of neutrophils in post-capillary venous microcirculation of the cremaster after TNFα injection; format: in vivo, HbSS knock-in sickle cell mice; details: HbSS mice
Procedure: as §1
To characterize in vivo the effects of the TREM-1 pathway on neutrophils recruitment, we used a protocol as previously described (Koehl B et al. Haematologica. 2017 July; 102(7):1161-1172). Male mice were anaesthetized by spontaneous inhalation of isoflurane and maintained at 37° C. with a heating pad. The left jugular vein was cannulated to administer drugs and antibodies. […] 2 h after TNFα injection, the cremaster muscle was incised and neutrophils were monitored by injection of labeled Phycoerythrin-conjugated anti-Ly6G antibody (0.05 μg/g body weight, clone RB6-8C5, BD Biosciences Pharmingen). Venules were visualized with an intravital microscope (Zeiss Examiner D1) equipped with a water-immersion objective (Zeiss Plan-Apochromat 20×/1.0 NA) and fluorescence excitation was made through a Lambda DG-4 high-speed wavelength switcher (Sutter Instrument). […] Images were analyzed using SlideBook 6.0 software (Intelligent Imaging Innovations). The neutrophil rolling flux fraction, adhesion density, adhesion efficiency and transmigration were measured using playback assessment of 3-min digital time-lapse videos and 3D z-stack recordings of single unbranched venules (3 venules per mouse, 20-40 μm) from 2.5 hours to 5 hours after the TNFα challenge at 30-min intervals. […]

neutrophils (PMNs) = assay: Hypoxia-reoxygenation experimental vaso-occlusive crisis: abundance of neutrophils on histological sections; format: in vivo, sickle cell mice (SS)
Procedure: as §1, §2

[1] = histological sections of lung, SS LR12 vs SS PBS

Substance: LR12: 12 amino-acid TREM-1 inhibitory peptide LQEEDAGEYGCM, N-terminal 12 amino-acids of LR17 (TLT-1 derived) (Synthetic LR12)
- vascular congestion with Ter 119+ erythrocytes, liver (Ter 119+ erythrocytes; histological sections of liver, SS LR12 vs SS PBS, intraperitoneal, hypoxia-reoxygenation): significant reduction
- vascular congestion with Ter 119+ erythrocytes, lung (Ter 119+ erythrocytes; [1]): not in lung sections
- vascular congestion with Ter 119+ erythrocytes, renal medulla (Ter 119+ erythrocytes; histological sections of renal medulla, SS LR12 vs SS PBS): significant reduction
- vascular congestion with Ter 119+ erythrocytes, spleen (Ter 119+ erythrocytes; histological sections of spleen, SS LR12 vs SS PBS): significant reduction
- vascular congestion of tissues (Ter 119+ erythrocytes; tissues of sickle cell mice (summary statement, FIGS. 3A-3D)): significant reduction
- neutrophil rolling (neutrophils; between 3 h and 4 h30 post-injection of TNFα, LR12 6 mg/kg 10 min before and 3 mg/kg 3 h15 after TNFα, 2way ANOVA P value=0.0041): significant reduction; also recorded: reduces
- neutrophil transmigration (neutrophils; from 3 h to 5 h post-TNFα, 2way ANOVA P value <0.0001): significant reduction; also recorded: reduces
- neutrophil adhesion (neutrophils; throughout the experiment after TNFα, 2way ANOVA P value <0.0001): significant reduction; also recorded: reduces
- abundance of neutrophils, liver (% green fluorescent surface) (neutrophils (PMNs); histological sections of liver, SS LR12 vs SS PBS): significant reduction
- abundance of neutrophils, lung (% green fluorescent surface) (neutrophils (PMNs); [1]): significant reduction
- abundance of neutrophils in tissues (neutrophils (PMNs); tissues of sickle cell mice during experimental vaso-occlusive crisis (summary statement, FIGS. 4A and 4B)): significant reduction
